From patent US20070269451A1, “Nucleic Acid Vaccination” (priority 1999, published 2007) come the findings set out here.

One test deals with antibody SM3. Put plainly: Antibody binding curve for the mutant polypeptides (SM3 ELISA, FIG. 4). Particulars: peptide coated at 3 ug/ml. On the procedure: (§1) Peptides were prepared as aqueous solutions in 50 mM sodium bicarbonate buffer pH9.6 and coated onto Nunc Maxisorp plates at 4° C. overnight at a range of concentrations between 50 μg/ml and 25 ng/ml. After extensive washing with TBS-Tween (Tris-buffered saline, pH7.4 containing 0.05% Tween20), the plates were blocked with blocking solution (3% w/v bovine serum albumin in TBS-Tween) for 2 hours at room temperature. Anti-MUC1 antibodies HMFG1 (Novocastra, Newcastle, UK), HMFG2 (Novocastra), SM3 (Girling et al, 1989, Int J Cancer 43:1072-1076) and ATR1 (Bynum et al, 1995, Hybridoma 14:587-591) were diluted in blocking solution, added to the plate and incubated at room temperature for one hour. After washing, bound antibody was labelled by incubation with HRP-conjugated anti-mouse IgG (P260, Dako, Denmark) at 1/2000 dilution in blocking buffer. The plate was washed again and bound conjugate detected using Fast OPD colour reagents (Sigma, Poole, UK). The reaction was stopped by the addition of 3M sulphuric acid, and the OPD product quantitated by measuring the absorbance at 490 nm.
The polypeptides described in table 1 above were again used in this experiment. The methodology was essentially similar to Example 1 except that peptides were coated onto an ELISA plate at a fixed concentration of 3 ug/ml, and different concentrations of antibody SM3 were applied.
In general terms: ELISA stands for enzyme-linked immunosorbent assay.

The subject of the next test is anti-MUC1 antibody HMFG1. Kind of test: ELISA binding of anti-MUC1 antibody HMFG1 to synthetic MUC1 VNTR peptides. Particulars: peptide coated 50 μg/ml to 25 ng/ml; semiquantitative scale; absorbance at 490 nm. Further details: key: +++ indicates strong binding; ++ indicates fair binding; + indicates weak binding; − indicates no significant binding.
Source text: (§2) Synthetic peptides were designed containing mutations at the glycosylation sites. Particular attention was focused on substitutions at the threonine residue in this sequence (T11). Table 1 below indicates the peptides that were designed and their mutated glycosylation sites. Peptides containing two identical copies of the designed VNTR were synthesised at Genemed Synthesis Inc (San Francisco, Calif.). These peptides were then screened for their ability to bind to a number of anti-MUC1 monoclonal antibodies in an ELISA.
as §1
(§3) The ELISA signal for each antibody and peptide combination is ranked according to a semiquantitative scale, where +++ indicates strong binding, ++ indicates fair binding, + indicates weak binding, and − indicates no significant binding.

A further test concerns anti-MUC1 antibody HMFG2. Put plainly: ELISA binding of anti-MUC1 antibody HMFG2 to synthetic MUC1 VNTR peptides. Further details: key: +++ indicates strong binding; ++ indicates fair binding; + indicates weak binding; − indicates no significant binding. Particulars: peptide coated 50 μg/ml to 25 ng/ml; semiquantitative scale; absorbance at 490 nm.
Source text: as §2, §1, §3

In a further test the test system is anti-MUC1 antibody ATR1. Kind of test: ELISA binding of anti-MUC1 antibody ATR1 to synthetic MUC1 VNTR peptides. Further details: key: +++ indicates strong binding; ++ indicates fair binding; + indicates weak binding; − indicates no significant binding. The settings on record: peptide coated 50 μg/ml to 25 ng/ml; semiquantitative scale; absorbance at 490 nm.
Source text: as §2, §1, §3

The subject of a further test is anti-MUC1 antibody SM3. Kind of test: ELISA binding of anti-MUC1 antibody SM3 to synthetic MUC1 VNTR peptides. Further details: key to ELISA signal, Antibody SM3: +++ indicates strong binding; ++ indicates fair binding; + indicates weak binding; − indicates no significant binding. Particulars: for binding for the SM3 antibody (in words): Table 2; for ELISA signal, Antibody SM3: peptide coated 50 μg/ml to 25 ng/ml, semiquantitative scale, absorbance at 490 nm.
Source text: as §2, §1, §3

The mark [1] stands for this setting: different concentrations of SM3.

Entries after “also recorded” stand apart in the source; their conditions may differ.

On to Ac-(PAHGVVAAPDIRPAPGAVAP)2-NH2 [Mut5I], for which the “SM3 antibody binding pattern / affinity across a range of antibody concentrations” value in the test on antibody SM3 (setting [1]) is “does little to reduce the affinity”. For the same substance, the “ELISA signal, Antibody HMFG1” value in the test on anti-MUC1 antibody HMFG1 is “++”. Moreover, in the test with anti-MUC1 antibody HMFG2, the “ELISA signal, Antibody HMFG2” value is on record as “+++”. Moreover, the “ELISA signal, Antibody ATR1” value in the test on anti-MUC1 antibody ATR1 is recorded as “++”. Also, in the test on anti-MUC1 antibody SM3, the “binding for the SM3 antibody (in words)” value is on record as “maintain binding” and the “ELISA signal, Antibody SM3” value is recorded as “+++”.

Take Ac-(PAHGVVAAPDPRPAPGAVAP)2-NH2 [Mut5P]: the “SM3 antibody binding pattern / affinity across a range of antibody concentrations” value in the test on antibody SM3 (setting [1]) was “substantially the same results as those shown for Mut5W; also recorded: essentially the same as those shown for Mut5W”. The “ELISA signal, Antibody HMFG1” value with anti-MUC1 antibody HMFG1 is listed as “+”. Moreover, in the test with anti-MUC1 antibody HMFG2, the “ELISA signal, Antibody HMFG2” value is listed as “−”. Further, the “ELISA signal, Antibody ATR1” value with anti-MUC1 antibody ATR1 is recorded as “+”. In addition, the “ELISA signal, Antibody SM3” value with anti-MUC1 antibody SM3 is “−”.

For the substance Ac-(PAHGVVAAPDVRPAPGAVAP)2-NH2 [Mut5V], in the test with antibody SM3 (setting [1]), the “SM3 antibody binding pattern / affinity across a range of antibody concentrations” value is “does little to reduce the affinity”. Besides, in the test with anti-MUC1 antibody HMFG1, the “ELISA signal, Antibody HMFG1” value is recorded as “−”. The “ELISA signal, Antibody HMFG2” value in the test on anti-MUC1 antibody HMFG2 is listed as “+++”. The “ELISA signal, Antibody ATR1” value with anti-MUC1 antibody ATR1 was “+++”. Also, in the test on anti-MUC1 antibody SM3, the “binding for the SM3 antibody (in words)” value was “maintain binding” and the “ELISA signal, Antibody SM3” value is recorded as “+++”.

With Ac-(PAHGVVAAPDARPAPGAVAP)2-NH2 [Mut5A], the “SM3 antibody binding pattern / affinity across a range of antibody concentrations” value in the test with antibody SM3 (setting [1]) was “essentially the same as those shown for Mut5W”; in the test on antibody SM3 (different concentrations of SM3, listed as Mut 5A), “substantially the same results as those shown for Mut5W”. Moreover, the “ELISA signal, Antibody HMFG1” value in the test with anti-MUC1 antibody HMFG1 is listed as “++”. In addition, the “ELISA signal, Antibody HMFG2” value with anti-MUC1 antibody HMFG2 is “−”. For the same substance, the “ELISA signal, Antibody ATR1” value in the test with anti-MUC1 antibody ATR1 is on record as “+++”. Besides, the “ELISA signal, Antibody SM3” value in the test with anti-MUC1 antibody SM3 is “−”.

In the case of Ac-(PAHGVVAAPDWRPAPGAVAP)2-NH2 [Mut5W], the “ELISA signal, Antibody HMFG1” value with anti-MUC1 antibody HMFG1 was “−”. Moreover, the “ELISA signal, Antibody HMFG2” value with anti-MUC1 antibody HMFG2 is “−”. Moreover, the “ELISA signal, Antibody ATR1” value in the test on anti-MUC1 antibody ATR1 is reported as “++”. Moreover, the “ELISA signal, Antibody SM3” value in the test on anti-MUC1 antibody SM3 is listed as “−”.

For Ac-(PAHGVVAAPDNRPAPGAVAP)2-NH2 [Mut5N], the “SM3 antibody binding pattern / affinity across a range of antibody concentrations” value with antibody SM3 (setting [1]) is reported as “substantially the same results as those shown for Mut5W; also recorded: essentially the same as those shown for Mut5W”. Besides, the “ELISA signal, Antibody HMFG1” value in the test on anti-MUC1 antibody HMFG1 is listed as “−”. For the same substance, the “ELISA signal, Antibody HMFG2” value in the test on anti-MUC1 antibody HMFG2 is “−”. In the test on anti-MUC1 antibody ATR1, the “ELISA signal, Antibody ATR1” value is on record as “+++”. The “ELISA signal, Antibody SM3” value in the test with anti-MUC1 antibody SM3 was “−”.

Consider Ac-(PAHGVVAAPDTRPAPGAVAP)2-NH2 [Mut4], for which, in the test on anti-MUC1 antibody HMFG1, the “ELISA signal, Antibody HMFG1” value is given as “++”. The “ELISA signal, Antibody HMFG2” value in the test on anti-MUC1 antibody HMFG2 is given as “+++”. Besides, the “ELISA signal, Antibody ATR1” value in the test on anti-MUC1 antibody ATR1 is “+++”. In addition, the “ELISA signal, Antibody SM3” value in the test with anti-MUC1 antibody SM3 is “+++”.
